Laboratory results: US8436024B2, “2-pyridone compounds” (Astrazeneca AB, priority 2009, dated 2013)

What was measured:
[1] = molecular target: T1, Human Neutrophil Elastase (HNE) (Homo sapiens, UniProt P08246); assay: Human Neutrophil Elastase Quenched-FRET Assay; assay type: biochemical; conditions: geomean of measured IC50 values; HNE 0.17 nM, substrate MeOSuc-AAPV-AMC 100 μM, 90 min at room temperature; read-out: Inhibition of Human Neutrophil Elastase IC50
T1 sequence (P08246 30-267): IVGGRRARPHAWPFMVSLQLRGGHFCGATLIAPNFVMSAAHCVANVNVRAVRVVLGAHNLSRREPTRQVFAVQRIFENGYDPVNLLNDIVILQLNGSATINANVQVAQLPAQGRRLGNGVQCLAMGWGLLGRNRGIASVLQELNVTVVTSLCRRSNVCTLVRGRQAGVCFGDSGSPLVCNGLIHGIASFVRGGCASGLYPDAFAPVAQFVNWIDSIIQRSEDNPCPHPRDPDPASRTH
Experimental: Human Neutrophil Elastase Quenched-FRET Assay The assay uses Human Neutrophil Elastase (HNE) purified from serum (Calbiochem art. 324681; Ref Baugh, R. J. et al., 1976, Biochemistry. 15, 836-841). HNE was stored in 50 mM sodium acetate (NaOAc), 500 mM sodium chloride (NaCl), pH 5.5 with added 50% glycerol at −20° C. The protease substrate used was Elastase Substrate V Fluorogenic, MeOSuc-AAPV-AMC (Calbiochem art. 324740; Ref Castillo, M. J. et al., 1979, Anal. Biochem. 99, 53-64). The substrate was stored in dimethyl sulphoxide (DMSO) at −20° C. The assay additions were as follows: Test compounds and controls were added to black 384-well flat-bottom plates (Greiner 781076), 0.2 μL in 100% DMSO, followed by 10 μL HNE in assay buffer with 0.01% Triton (trade mark) X-100 detergent. The assay buffer constitution was: 100 mM Tris(hydroxymethyl)aminomethane (TRIS) (pH 7.5) and 500 mM NaCl. The enzyme and the compounds were incubated at room temperature for 15 minutes. Then 10 μL substrate in assay buffer was added. The assay was incubated for 90 minutes at room temperature. The concentrations of HNE enzyme and substrate during the incubation were 0.17 nM and 100 μM, respectively. The assay was then stopped by adding 20 μl stop solution (140 mM acetic acid, 200 mM sodium monochloroacetate, 60 mM sodium acetate, pH 4.3). Fluorescence was measured on a Wallac EnVision 2102 Multilabel Reader instrument at settings: Excitation 380 nm, Emission 460 nm. IC50 values were determined using Xlfit curve fitting using model 203. […] Specimen results are shown in the following Table in which the IC50 value represents the geomean of the IC50 values measured for a particular compound and “n” refers to the number of times the compound was tested: […]

[2] = Humidity interaction (hygroscopicity determination) by Gravimetrical Vapour Sorption; assay type: physicochemical; conditions: for hygroscopicity: relative change in weight between 0% RH and 80% RH, second cycle, benzenesulfonate
Experimental: Run time was 6.2 minutes; post time was 2.3 min; and detection was at 235 nm. • (v) In general, the course of reactions was followed by TLC and reaction times are given for illustration only. • (vi) Yields are given for illustration only and are not necessarily those which can be obtained by diligent process development; preparations were repeated if more material was required. • (vii) Chemical symbols have their usual meanings; SI units and symbols are used. • (viii) Solvent ratios are given in volume: volume (v/v) terms. • (ix) Mass spectra (MS) (loop) were recorded on a Micromass Platform LC equipped with HP 1100 detector; unless otherwise stated the mass ion quoted is (MH^+). • (x) X-ray Powder Diffraction patterns were collected on a PANalytical X′Pert PRO MPD theta-theta system, equipped with a focusing beam Johansson monochromator and an X′Celerator detector, using CuKα1 radiation (1.5406 Å, 45 kV, 40 mA). The diffraction pattern was collected between 2 and 40 °2θ in a continuous scan mode. The scan speed was 0.86°/min. with an increment of 0.016°. Samples were mounted on single silicon crystal wafer mounts. • (xi) Humidity Interaction (hygroscopicity determination): The gravimetric responses of test samples to changes in humidity were investigated using a TGA 5000 (TA Instruments) Gravimetrical Vapour Sorption (GVS). The relative humidity (RH) was raised in steps of 10% to 90% RH and lowered back to 0% RH in two cycles. Each level of RH was held until the equilibrium condition (sample weight change<0.005 wt % per 10 minutes) was reached. 3-5 mg of the test sample was placed in the cup and evaluated. The hygroscopicity was calculated as the relative change in weight of the sample between 0% RH at the start of the second cycle and 80% RH during the increase of humidity in the second cycle. […]

IC50 [1]	Structure (SMILES)	further results
949 pM	Cc1c(-c2ccnn2-c2ccc(C#N)cc2)cc(C(=O)NCC[N+]2(C)CCCC2)c(=O)n1-c1cccc(C(F)(F)F)c1 [Example 1, 1-{2-[({5-[1-(4-cyanophenyl)-1H-pyrazol-5-yl]-6-methyl-2-oxo-1-[3-(trifluoromethyl)phenyl]-1,2-dihydropyridin-3-yl}carbonyl)amino]ethyl}-1-methylpyrrolidinium acetate]	–
771 pM	Cc1c(-c2ccnn2-c2ccc(C#N)cc2)cc(C(=O)NCCCC[N+]2(C)CCCC2)c(=O)n1-c1cccc(C(F)(F)F)c1 [Example 2, 1-{-4-[({5-[1-(4-cyanophenyl)-1H-pyrazol-5-yl]-6-methyl-2-oxo-1-[3-(trifluoromethyl)phenyl]-1,2-dihydropyridin-3-yl}carbonyl)amino]butyl}-1-methylpyrrolidinium acetate]	–
1050 pM	Cc1c(-c2ccnn2-c2ccc(C#N)cc2)cc(C(=O)NCC[N+](C)(C)C)c(=O)n1-c1cccc(C(F)(F)F)c1 [Example 3, 2-[({5-[1-(4-cyanophenyl)-1H-pyrazol-5-yl]-6-methyl-2-oxo-1-[3-(trifluoromethyl)phenyl]-1,2-dihydropyridin-3-yl}carbonyl)amino]-N,N,N-trimethylethanaminium acetate]	–
934 pM	Cc1c(-c2ccnn2-c2ccc(C#N)cc2)cc(C(=O)NCCCC[N+](C)(C)C)c(=O)n1-c1cccc(C(F)(F)F)c1 [Example 4, 4-[({5-[1-(4-cyanophenyl)-1H-pyrazol-5-yl]-6-methyl-2-oxo-1-[3-(trifluoromethyl)phenyl]-1,2-dihydropyridin-3-yl}carbonyl)amino]-N,N,N-trimethylbutan-1-aminium iodide]	–
971 pM	Cc1c(-c2ccnn2-c2ccc(C#N)cc2)cc(C(=O)NCCC[N+]2(C)CCCC2)c(=O)n1-c1cccc(C(F)(F)F)c1 [Example 5, 1-{3-[({5-[1-(4-cyanophenyl)-1H-pyrazol-5-yl]-6-methyl-2-oxo-1-[3-(trifluoromethyl)phenyl]-1,2-dihydropyridin-3-yl}carbonyl)amino]propyl}-1-methylpyrrolidinium iodide]	–
3480 pM	Cc1c(-c2ccnn2-c2ccc(C#N)cc2)nc(C(=O)NCCC[N+](C)(C)C)c(=O)n1-c1cccc(C(F)(F)F)c1 [Example 6, 3-[({6-[1-(4-cyanophenyl)-1H-pyrazol-5-yl]-5-methyl-3-oxo-4-[3-(trifluoromethyl)phenyl]-3,4-dihydropyrazin-2-yl}carbonyl)amino]-N,N,N-trimethylpropan-1-aminium iodide]	–
570 pM	Cc1c(-c2ccnn2-c2ccc(C#N)cc2)cc(C(=O)NCCC[N+](C)(C)C)c(=O)n1-c1cccc(C(F)(F)F)c1 [Example 7, 3-(5-(1-(4-cyanophenyl)-1H-pyrazol-5-yl)-6-methyl-2-oxo-1-(3-(trifluoromethyl)phenyl)-1,2-dihydropyridine-3-carboxamido)-N,N,N-trimethylpropan-1-aminium bromide]	–
–	Cc1c(-c2ccnn2-c2ccc(C#N)cc2)cc(C(=O)NCCC[N+](C)(C)C)c(=O)n1-c1cccc(C(F)(F)F)c1.O=S(=O)([O-])c1ccccc1 [Example 9, 3-(5-(1-(4-cyanophenyl)-1H-pyrazol-5-yl)-6-methyl-2-oxo-1-(3-(trifluoromethyl)phenyl)-1,2-dihydropyridine-3-carboxamido)-N,N,N-trimethylpropan-1-aminium benzenesulfonate]	hygroscopicity ([2]; listed as Form A): 0.8 % (w/w)
1100 pM	Cc1c(-c2ccnn2-c2ccc(C#N)cc2)cc(C(=O)NCCC[N+](C)(C)C)c(=O)n1-c1cccc(C(F)(F)F)c1 [Example 9a, 3-(5-(1-(4-cyanophenyl)-1H-pyrazol-5-yl)-6-methyl-2-oxo-1-(3-(trifluoromethyl)phenyl)-1,2-dihydropyridine-3-carboxamido)-N,N,N-trimethylpropan-1-aminium benzenesulfonate]	–
–	Cc1c(-c2ccnn2-c2ccc(C#N)cc2)cc(C(=O)NCCC[N+](C)(C)C)c(=O)n1-c1cccc(C(F)(F)F)c1.O=S(=O)([O-])c1ccccc1 [Example 10, 3-(5-(1-(4-cyanophenyl)-1H-pyrazol-5-yl)-6-methyl-2-oxo-1-(3-(trifluoromethyl)phenyl)-1,2-dihydropyridine-3-carboxamido)-N,N,N-trimethylpropan-1-aminium benzenesulfonate]	hygroscopicity (in words) ([2]; description of the crystalline modification): low hygroscopicity; hygroscopicity ([2]; listed as Form B): 0.4 % (w/w)
